Structures can show the parent of a compound that is named as a salt. Where two headings read alike, the source gives them in different places.

ED50 and α1 antagonist activity data for 14 compounds are collected here from patent publication US5077288A, “4-fluorobenzoic compounds with 5-HT2 - and α1 -antagonistic activities” (Adir et Compagnie, priority 1989, dated 1991).

One test has as its system 5-HTP. The test is described as follows: 5-HTP antagonism: forepaw treading, flat body posture and head twitches induced by 5-hydroxytryptophan. In kind it is in vivo, rat (female Wistar). As to conditions: Rattus norvegicus. The protocol: 4 Female Wistar rats (270±30 g), fasted for approximately 24 hours, are used. At the beginning of the test, they are administered the "control" solution or solutions of 5-hydroxytryptophan at a dose of 320 mg/kg. The animals are then placed under observation in transparent cages. Three parameters are assessed in the study: "forepaw treading", "flat body posture" and "head twitches". "Forepaw treading" corresponds to a pedalling motion of the forelimbs. This parameter is measured 80 minutes after the administration of 1,5-hydroxytryptophan and during a ten-minute observation period. This time is divided into 5- second periods and, if a movement is observed in this period, a score of 1 is assigned, the maximum score being […] for the ten minutes of observation and for each animal. The parameter "head twitches" relates to the number of twitches of the head of the animals observed during 10 minutes. This parameter is assessed 90 minutes after the administration of 1,5-hydroxytryptophan and during a 10- minute period. "Flat body posture" corresponds to a flattening of the body which lasts for more than 10 minutes. This parameter is assessed throughout the period of observation of the animals.

The next test addresses T1, 5-HT2 (Rattus norvegicus, UniProt P14842).
T1 construct: from tissue; host or cells: whole anaesthetised male Sprague-Dawley rat in vivo (vasculature; arterial blood pressure recorded)
The test is described as follows: 5-HT2 antagonism: inhibition of hypertensive response to 5-hydroxytryptamine. In kind it is in vivo, rat (male Sprague-Dawley). The settings on record: iv, 10 min, i.v., cumulative doses, 5-hydroxytryptamine 100 μg/kg i.v., prazosin pretreatment, read-out: ID50, dose inhibiting the hypertensive response by 50%. The protocol: Male Sprague-Dawley rats (350-400 g) are anesthetized i.p. with pentobarbital (45 mg/kg). The trachea is cannulated and the animals are subjected to artificial respiration. The vagus nerves are sectioned. A catheter is placed in a carotid artery to record the arterial blood pressure. A second catheter is placed in the vein of the penis and is used for the injections. The animals' temperature is taken and is maintained at 37° C. The rats are pretreated with d-tubocurarine (1 mg/kg i.v.) an prazosin (1 mg/kg i.v.). 5-Hydroxytryptamine is injected i.v. at a dose of 100 μg/kg twice, separated by an interval of 10 minutes, so as to determine the rise in the systolic arterial blood pressure of each rat 10 minutes later, the compounds of the invention are injected at the lowest dose and injection of 5-hydroxytryptamine is performed again 10 minutes later. 3 or 4 cumulative doses of the compounds of the invention are tested in the same manner. The percentages of the hypertensive response which are obtained at the different doses are calculated in order to determine the ID50, the dose inhibiting the hypertensive response by 50%.

In another test the test system is α1 receptor. The settings on record: in words; cited from earlier work.
Where [1] appears, read: sc, subcutaneously, 5-hydroxytryptophan 320 mg/kg, Table IV, read-out: ED50 FBP (flat body posture).
The mark [2] stands for this setting: sc, subcutaneously, 5-hydroxytryptophan 320 mg/kg, Table IV, read-out: ED50 FPT (forepaw treading).
Setting [3] is: sc, read-out: ED50 HT (head twitches).

T1 sequence (P14842 whole entry): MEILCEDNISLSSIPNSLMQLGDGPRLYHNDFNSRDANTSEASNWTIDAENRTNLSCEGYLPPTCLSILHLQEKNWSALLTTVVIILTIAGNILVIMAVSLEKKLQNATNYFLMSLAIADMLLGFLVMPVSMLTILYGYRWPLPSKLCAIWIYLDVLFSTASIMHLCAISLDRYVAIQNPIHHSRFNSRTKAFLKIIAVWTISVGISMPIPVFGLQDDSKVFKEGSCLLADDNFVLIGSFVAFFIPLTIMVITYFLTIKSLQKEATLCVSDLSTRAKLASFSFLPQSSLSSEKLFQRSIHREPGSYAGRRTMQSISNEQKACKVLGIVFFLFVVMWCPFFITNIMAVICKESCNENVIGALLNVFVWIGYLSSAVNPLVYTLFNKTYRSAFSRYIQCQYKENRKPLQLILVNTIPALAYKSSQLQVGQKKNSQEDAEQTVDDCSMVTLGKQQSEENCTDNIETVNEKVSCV

`Cl.O=C(c1ccc(F)cc1)C1CCN(CCCCN2C(=O)CN(Cc3ccccc3F)CC2=O)CC1` [EXAMPLE 4, 1-{4-[4-(4-Fluorobenzoyl)piperidino]butyl}-4-(2-fluorobenzyl) piperazine 2,6-dione hydrochloride]: the figures for the ED50 in the test with 5-HTP (setting [1]) and with 5-HTP (setting [2]) were 10 mg/kg and 5 mg/kg, respectively.
Turning to `Cl.Cl.O=C(c1ccc(F)cc1)C1CCN(CCCN2CCN(c3ncccn3)CC2)CC1` [EXAMPLE 7, 1-{3-[4-(4-Fluorobenzoyl)piperidino]propyl}-4-(2-pyrimidinyl) -piperazine dihydrochloride], the ED50 is greater than 10 mg/kg in the test on 5-HTP (setting [3]), 1.25 mg/kg in the test on 5-HTP (setting [1]) and 1.25 mg/kg in the test with 5-HTP (setting [2]).
Consider `O=C(CC1CCN(CCCN2C(=O)CN(Cc3ccccc3F)CC2=O)C1)c1ccc(F)cc1.O=C(O)C(O)C(O)C(=O)O` (stereo not shown) [EXAMPLE 5, 4-(2-Fluorobenzyl)-1-{3-[3-(4-fluorophenacyl)-1-pyrrolidinyl]propyl}piperazine 2,6-dione tartrate], for which the ED50 in the test on 5-HTP (setting [3]) was greater than 10 mg/kg; in the test on 5-HTP (setting [1]), 0.31 mg/kg; in the test on 5-HTP (setting [2]), 10 mg/kg.
Take `Cl.O=C(c1ccc(F)cc1)C1CCN(CCCN2C(=O)CN(Cc3ccccn3)CC2=O)CC1` [EXAMPLE 3, 1-{3-[4-(4-Fluorobenzoyl)piperidino]propyl}-4-(2-pyridylmethyl) piperazine 2,6-dione hydrochloride]: the results for the ED50 in the test on 5-HTP (setting [3]), in the test with 5-HTP (setting [1]) and in the test with 5-HTP (setting [2]) were 5 mg/kg, 0.31 mg/kg and 1.25 mg/kg, respectively.
Regarding `Cc1nc2c(C(N)=O)ncn2c(O)c1CCN1CCC(CC(=O)c2ccc(F)cc2)C1.Cl` (stereo not shown) [EXAMPLE 9, 8-Carbamoyl-3-{2-[3-(4-fluorophenacyl)-1-pyrrolidinyl]ethyl}-4-hydroxy-2-methylimidazo[1,5-a]pyrimidine hydrochloride], on 5-HT2, the ED50 was 0.01 mg/kg.
`Cl.O=C(c1ccc(F)cc1)C1CCN(CCCN2C(=O)CN(Cc3ccccc3F)CC2=O)CC1` [EXAMPLE 2, 1-{3-[4-(4-Fluorobenzoyl)piperidino]propyl}-4-(2-fluorobenzyl) piperazine 2,6-dione hydrochloride]: the ED50 at 5-HT2 is 0.014 mg/kg; with 5-HTP (setting [3]), 5 mg/kg; in the test on 5-HTP (setting [1]), 0.31 mg/kg; in the test with 5-HTP (setting [2]), 10 mg/kg.
Consider `COc1cccc(CN2CC(=O)N(CCCN3CCC(C(=O)c4ccc(F)cc4)CC3)C(=O)C2)c1.Cl` [EXAMPLE 18, 1-{3-[4-(4-Fluorobenzoyl)piperidino]propyl}-4-(3-methoxybenzyl) piperazine 2,6-dione hydrochloride], for which the ED50 came to 2.5 mg/kg in the test with 5-HTP (setting [1]) and 5 mg/kg in the test on 5-HTP (setting [2]).
For the compound `Cc1nc2c(C(N)=O)ncn2c(O)c1CCN1CCC(C(=O)c2ccc(F)cc2)CC1` [EXAMPLE 8, 8-Carbamoyl-3-{2-[4-(4-fluorobenzoyl)piperidino]-ethyl}-4-hydroxy-2-methylimidazol[1,5-a]pyrimidine hydrochloride], the ED50 is 0.018 mg/kg at 5-HT2; greater than 10 mg/kg in the test with 5-HTP (read-out: ED50 HT (head twitches)); 0.63 mg/kg in the test on 5-HTP (Table V, route not given, 5-hydroxytryptophan 320 mg/kg, read-out: ED50 FBP (flat body posture)); 10 mg/kg with 5-HTP (Table V, route not given, 5-hydroxytryptophan 320 mg/kg, read-out: ED50 FPT (forepaw treading)).
For the compound `Cc1cccc(CN2CC(=O)N(CCCN3CCC(C(=O)c4ccc(F)cc4)CC3)C(=O)C2)c1.Cl` [EXAMPLE 15, 1-{3-[4-(4-Fluorobenzoyl)piperidino]propyl}-4-(3-methylbenzyl) piperazine 2,6-dione hydrochloride], the values for the ED50 with 5-HTP (setting [3]), in the test on 5-HTP (setting [1]) and with 5-HTP (setting [2]) were 5 mg/kg, 2.5 mg/kg and 10 mg/kg, respectively.
For `O=C(CC1CCN(CCn2c(=O)[nH]c3ccccc3c2=O)C1)c1ccc(F)cc1` (stereo not shown) [EXAMPLE 10, 2,4-Dioxo-3-{2-[3-(4-fluorophenacyl)-1-pyrrolidinyl]ethyl}-1,2,3,4-tetrahydrocuinazoline hydrochloride], the ED50 on 5-HT2 worked out at 0.0054 mg/kg; with 5-HTP (setting [3]) it was 2.5 mg/kg; in the test with 5-HTP (setting [1]), 0.16 mg/kg; in the test with 5-HTP (setting [2]), 0.31 mg/kg.
For `Cc1nc2c(C#N)ncn2c(O)c1CCN1CCC(C(=O)c2ccc(F)cc2)CC1` [EXAMPLE 1, 8-Cyano-3-{2-[4-(4-fluorobenzoyl)piperidino]ethyl}-4-hydroxy-2-methylimidazo[l,5-a]pyrimidine hydrochloride] the same measures were 0.0045 mg/kg, greater than 40 mg/kg, 0.04 mg/kg and 40 mg/kg.
For the compound `Cl.Cl.O=C(c1ccc(F)cc1)C1CCN(CCN2CCN(c3ncccn3)CC2)CC1` [EXAMPLE 21, 4-{2-[4-(4-Fluorobenzoyl)piperidino]ethyl}-1-(2-pyrimidinyl) piperazine dihydrochloride], the ED50 in the test on 5-HTP (setting [3]) came to 1.25 mg/kg; in the test with 5-HTP (setting [1]), 0.63 mg/kg; in the test on 5-HTP (setting [2]) it was 2.5 mg/kg.
As for `O=C(c1ccc(F)cc1)C1CCN(CCn2c(=O)[nH]c3ccccc3c2=O)CC1` [KETANSERIN], in the test on α1 receptor, the α1 antagonist activity entry was “devoid of α1 antagonist activity”.
Regarding `O=C(CC1CCCN(CCCN2C(=O)CN(Cc3ccccc3F)CC2=O)C1)c1ccc(F)cc1` (stereo not shown) [EXAMPLE 6, 4-(2-Fluorobenzyl)-1-{3-[3-4-fluorophenacyl)piperidino]propyl)}piperazine 2,6-dione ditartrate], the ED50 on 5-HT2 was determined as 0.0037 mg/kg; in the test with 5-HTP (setting [1]), 1.25 mg/kg; with 5-HTP (setting [2]), 2.5 mg/kg.
